Measured values published in patent US7851142B2, “Method of reducing glycolysis in platelet concentrates using L-carnitine, alkanoyl carnitines and salts thereof” (priority 1997, dated 2010).
Entries after “also recorded” stand apart in the source; their conditions may differ.

Experiments:
[1] = test system: standard (non-leuko-reduced) platelet concentrates; details: extended storage (>5 days; five-ten days); cited from earlier work
[2] = test system: coagulase negative staphylococci; test: Bacterial growth in spiked extended-storage platelet concentrates; format: cell-based; details: for Bacterial growth: platelet concentrate
Procedure: Study Methods: Two ABO identical prestorage-leuko-reduced platelet concentrates produced by in line filtration of platelet rich plasma (MedSep Corp. Covina, Calif.) were pooled, then equally divided into two CLX® (MedSep) bags. Either LC, to a final concentration of 5 mM, or saline (control) was added to one of each pair. Each container was spiked with 1 ml of a coagulase negative staphylococcal suspension on Day 0 to a final concentration between 1-48 CFU/mL. Samples were removed from each container aseptically on Day 3, Day 6 and either Day 7 or Day 8 for colony count. Data were analyzed by paired t tests.

[3] = test system: stored RBC; test: Membrane complex lipid reacylation in stored RBC ([1-14C]palmitic acid incorporation); format: cell-based, human
Procedure: Analysis of membrane complex lipid reacylation in stored RBC. Blood sample was withdrawn from stored RCC unit through a sampling site coupler with a syringe, and the sample processed immediately. This was done in a laminar flow hood under UV light. All the manipulations were conducted at 0-5° C. unless noted. RBC were washed two times with 4 vol. of cold 0.9% NaCl. Isolated RBC were once again washed with incubation buffer (NaCl 120 mM, KCl 5 mM, MgSO4 1 mM, NaH2PO4 1 mM, saccharose 40 mM, 5 mM glucose, Tris-HCl 10 mM, at pH 7.4) and resuspended in the same buffer at a final hematocrit of 5%. A Rotabath shaking bath at 37° C. was used for the incubations. RBC were incubated with the radioactive palmitic acid (10 μM) complexed to fatty acid free BSA (1.65 mg/ml), Incubations were ended by washing cells once with cold incubation buffer, three times with fatty acid free BSA 1% in incubation buffer, and finally once again with incubation buffer. RBC lipids were extracted from intact cells with the Rose & Oaklander procedure, J. Lipid Res. 6: 428-431 (1965). In order to prevent lipid oxidation, 0.1% butylated hydroxytoluene was added to the lipid extracts. Aliquots of the lipid extract were used for determination of lipid phosphorus content, and analyzed by two dimensional thin layer chromatography. Briefly, the chromatograms were developed using chloroform-methanol-28% ammonia (65:25:5) in the first dimension. The chromatograms were then developed using chloroform-acetone-methanol-acetic acid-water (6:8:2:2:1) in the second dimension. Phosphatidylcholine (PC), a phosphatidylethanolamine (PE), and phosphatidylserine were visualized by brief exposure of the plates to iodine and identified using standards as a reference. Individual phospholipid spots were scraped off into vials containing scintillation fluid and radioactivity was determined by liquid scintillation counting. The identification and analysis of radioactive PLC was carried out as recently described, Arduini et al., J. Biol. Chem. 267: 12673-81 (1992). Counting efficiency was evaluated by an external standard. […]

[4] = test system: prestorage-leuko-reduced platelet concentrates; test: Extended storage of prestorage-leuko-reduced random platelets (glycolysis and platelet quality tests); format: cell-based, human; details: 5 mM L-Carnitine, stored seven or eight days at 22° C.
Procedure: Study Deign: Two ABO identical prestorage-leuko-reduced platelet concentrates produced by in-line filtration of platelet rich plasma (MedSep Inc., Corvina, Calif.) were pooled, then equally divided into two CLX (MedSep) containers. Either L-Carnitine (final concentration 5 mM) or saline was added to one bag of each pair of platelets. Platelets were stored for either seven or eight days at 22° C. on a flatbed agitator, then tested. Tests performed were pH, platelet count, supernatant glucose and lactate, surface p-selectin expression by flow cytometry, extent of shape change (ESC) and hypotonic shock response (HSR). Glucose consumption and lactate production were calculated as mM/10^12 platelets/day. Data were analyzed using paired t-tests.

[5] = test system: transfused stored RBC; test: In vivo post-transfusion measurements of 42-day stored RBC (51Cr/99Tc labeling); set-up: species or system human; details: RBC stored 42 days with 5 mM LC, reinfused into donor
From the text: Subjects. The subject population was male or female research subjects between the ages of 18 to 65 years with no known mental or physical disability and taking no drugs that might affect RBC viability. Individuals were recruited who fulfilled the conventional allogeneic donor criteria as listed in the Code of Federal Register, Chapter 2, the Standards of the American Association of Blood Banks, and the Blood Services Directives of the American National Red Cross. The study was approved by the Institutional Review Board of the Medical College of Hampton Roads and the subjects gave informed consent prior to participation in the study.
Each donor donated on two different occasions separated by 72 days, and was randomized to either the test or control arm on the first donation.
In vivo Post-transfusion Measurements. After 42 days of storage, a sample was withdrawn and the stored cells labeled with Cr using standard methods. At the same time, to determine RBC mass, a fresh sample was collected from the donor for RBC labeling with 99 Tc. After labeling, 15 μCi ^51Cr-labeled stored cells and 15 μCi ^99Tc-labeled fresh cells were mixed and simultaneously infused. Blood samples (5 mL) were taken after the infusion at various time intervals for up to 35 days to calculate 24-hour % recovery and survival. The 24-hour % recovery was determined using either the single label method where log-linear regression of the radioactivity levels of samples taken at 5, 7.5, 10, and 15 min. was used to determine 0 time level, or by the double label method using donor RBC mass as determined by the ^99Tc measurement.
Circulating lifespan of the transfused surviving Cr-labeled RBC was determined by samples taken at 24 hours and then twice weekly for up to 5 weeks. The radioactivity levels were corrected for a constant 1% elution per day. The data were fitted to a linear function with post-transfusion days as independent variable (x-axis) and the corrected Cr counts as dependent variable (y-axis). The lifespan of the RBC was then taken as the intersection of the fitted line with the x-axis. […]

[6] = test system: packed RBC (red cell concentrates); test: In vitro measurements on red cell concentrates stored in AS-3 with or without LC; format: cell-based, human; details: AS-3 with 5 mM LC
Procedure: Blood storage system. Standard CP2D/AS-3 system (Miles, Inc.) Using polyvinyl chloride (PVC) plastic with diethyl-(n)hexyl-phthalate (DEHP) as plasticizer was used. For each test unit, 245 mg LC (in 1.1 mL pure, pyrogen-free solution in a sterilized glass bottle) was added to the container holding the AS-3 additive solution to give a final concentration of 5 mM. For the control units, 1.1 mL 0.9% NaCl was added to the AS-3 solution using the same conditions. Addition of LC or saline to the bags was performed by injecting through a sampling site coupler with a syringe. This was done in a laminar flow hood under UV light.
Donation & Processing. Standard phlebotomy and blood-drawing methods were used with collection of approximately 450±50 mL whole blood. The whole blood unit was held between 4-8 hours at room temperature before processing. The unit was centrifuged using standard conditions and, after centrifugation, the supernatant plasma was expressed off, and the sedimented packed RBC resuspended either in the standard AS-3 solution (control) or the carnitine-containing AS-3 solution (test). The suspended RBC units were stored at 4° C. for 42 days.
In Vitro Measurements: Measurements performed on pre-(0 day) and post-(42-day) samples included RBC ATP levels; total and supernatant hemoglobin; hematocrit (Hct); RBC, WBC, and platelet counts; RBC osmotic fragility; RBC morphology; lactate and glucose levels; supernatant potassium levels. These were performed using standard procedures as described previously, Heaton et al., Vox Sang 57:37-42 (1989).
Statistical analysis. Paired t-test or routine non-parametric statistical analysis was performed on data from the in vivo and in vitro testing of the units to determine if there were any statistically significant differences (1-tail) in the means between the test and control units. Statistical significance was considered at a p value less than 0.05.

## C[N+](C)(C)C[C@H](O)CC(=O)[O-] [L-Carnitine, L-carnitine]
[1]
  Effect on glycolysis in stored platelet concentrates: reduces glycosis; also recorded: reduces glycolysis
[2]; Day 0, 5 mM L-Carnitine
  Bacterial growth: 1.12 ± 0.7 Log CFU/ml
[2]; Day 3, 5 mM L-Carnitine
  Bacterial growth: 3.04 ± 0.7 Log CFU/ml
[2]; Day 6, 5 mM L-Carnitine
  Bacterial growth: 3.88 ± 1.0 Log CFU/ml
[2]; Day 7/8, 5 mM L-Carnitine
  Growth relative to controls: 33%
  Bacterial growth: 4.60 ± 1.5 Log CFU/ml
[3]; RBC stored in LC-containing AS-3, over storage up to 42 days
  Radioactive palmitate incorporation into membrane PE: sudden increase of PE reacylation toward the end of the storage
[3]; RBC stored in LC-containing AS-3, over storage up to 42 days, listed as LC
  Radioactive palmitate incorporated into PLC (palmitoyl-L-carnitine): initial increase (with a nadir at the 3 week) followed by a rapid decrease; also recorded: greater than that found in red cells stored without LC
[3]; RBC stored in LC-containing AS-3 vs AS-3 alone, over storage
  Radioactive palmitate incorporation into membrane PC: no differences were observed between the two red cell preparations
[4]
  ESC (extent of shape change): 12 ± 4%
  Glucose concentration: 1.13 ± 0.2
  HSR (hypotonic shock response): 50 ± 22%
  Lactate production: 1.50 ± 0.2 mM/10^12 platelets/day
  pH: 7.09 ± 0.1
[4]; flow cytometry
  P-selectin (% positive): 69 ± 9%
[5]
  24 Hr % Recovery (single label): 84.0 ± 4.4%
  24 Hr Recovery (double label): 83.9 ± 5.0
  Survival (circulating lifespan of infused stored RBC): 96.1 ± 11.2 days
[6]; post-storage, 42 days at 4° C.
  ATP: 3.24 ± 0.38 μmol/g Hb
  Glucose: 193 ± 40 mg/dL
  Hemolysis: 0.30 ± 0.22 %
  Lactate: 199 ± 37 mg/dL
  Morphological Score: 68 ± 15
  Osmotic Fragility: 50 ± 4%
  Supernatant K+: 60 ± 3 mEq/L
  pH: 6.32 ± 0.04
[6]; pre-storage (0 day)
  ATP: 4.3 ± 0.4 μmol/g Hb
  Osmotic Fragility: 49 ± 4%
  Supernatant Hb: 26 ± 8 mg/dL
  Supernatant K+: 2.2 ± 0.3 mEq/L
